The values below are quoted from earlier work in patent US8703048B2, “Buffered swelling media for radiation sterilized hydrophilic coatings” (Coloplast A/S, priority 2008, dated 2014).

For this data set the following is noted: in water; for pKa: single value given.

Consider `O=C(O)CCO` [3-hydroxypropionic acid], for which the pKa (as a rule, the negative logarithm of the acid dissociation constant) was 3.73.

As for `Nc1ccccc1C(=O)O` [anthranilic acid], the pKa1 was 2.11 and the pKa2 is given as 4.95.

Regarding `NCCC(=O)N[C@@H](Cc1cnc[nH]1)C(=O)O` [carnosine], the pKa1 is recorded as 2.73, the pKa2 is 6.87 and the pKa3 is on record as 9.73.

In the case of `N#CO` [cyanic acid], the pKa is recorded as 3.92.

With `O=C(O)[C@H](O)[C@@H](O)[C@H](O)[C@H](O)CO` [gluconic acid], the pKa is 3.56.

Consider `O=C(O)CCCC(=O)O` [glutaric acid], for which the pKa1 was 4.31 and the pKa2 is listed as 5.41.

Turning to `O=C(O)CNC(=O)c1ccccc1` [hippuric acid], the pKa is reported as 3.80.

Turning to `F` [hydrofluoric acid], the pKa is reported as 3.45.
